Where only a bound is given, the exact number is not on record here.

The melting point is the temperature of the solid-liquid transition. `O=C(NCc1cncs1)c1ccnc(N2CCN(Cc3ccc(F)cc3)C2=O)c1` had a melting point of 148 to 150 °C.

The compound `CCCCC1(CCCC)CS(=O)(=O)c2ccc(N(C)C)cc2C(c2ccc(OCC(=O)NCC(=O)O)cc2)C1O` (configuration not stated) came in with a melting point of 149 to 150 °C.

`Cc1cc(C=O)c(C)c(Br)c1C`: the melting point lay within 108 to 110 °C.

Compound `CN1CCN(c2c(F)c(F)c([N+](=O)[O-])c(F)c2F)CC1` had a melting point of 77 to 78 °C.

`COc1ccccc1C=CC(=O)C(CC=Cc1ccccc1Cl)(CCC(=O)O)c1ccccc1` (configuration not stated) had a melting point of 206 to 210 °C.

Take `COC(=O)C(C)Nc1c([N+](=O)[O-])cnn1-c1c(Cl)cc(C(F)(F)F)cc1Cl` (configuration not stated): the melting point was in the range of 123 to 130 °C.

Regarding `Cc1cnc2c(c1)COP(=S)(c1ccccc1)O2` (configuration not stated), the melting point fell in the range of 97 to 98 °C.

`Cc1nc(C=O)c(C)[nH]1` showed a melting point of 164 to 166 °C.

The compound `CCC(C)N(C)C(=O)c1cc2sccc2c(-c2ccccc2)n1` (configuration not stated) registered a melting point of 104 °C.

For the compound `CCCOc1ccc2c(O)c([N+](=O)[O-])c(=O)oc2c1`, the melting point was 151 to 152 °C.

`Cc1c(F)c(F)c(C(=O)NC(C(C)C)C(C)C)c(F)c1F`: the melting point was 184 to 187 °C.

Turning to `COc1cc(C(NC(=O)OC(C)(C)C)C(c2ccccc2)[N+](=O)[O-])ccc1Br` (configuration not stated), the melting point was 157 to 159 °C.

In turn, `Cc1nn(-c2ccccn2)c2c1C(=NO)CC(C)(C)C2Br` (configuration not stated) returned a melting point of 195 to 196 °C.

The compound `Cc1cc(OCC(F)(F)F)c(N)c(OCC(F)(F)F)n1` displayed a melting point of 53.5 to 53.8 °C.

Compound `Cc1cc(NCC(C)C)c(N)c2nnnn12` displayed a melting point of 159 to 162 °C.

`CN1CCc2c(sc3c2C(=O)N(CCCl)CN3)C1` showed a melting point of 159 to 161 °C.

On to `CCc1c(Cl)c2ccccn2c1C(=O)c1ccc(O)c(Br)c1`, for which the melting point came to 204 °C.

The compound `O=C(O)c1cnn(OCCCC2OCCO2)c1` yielded a melting point of 85 °C.

The compound `COc1cc2cc(CO)c(CO)c(-c3ccncc3)c2cc1OC` returned a melting point of 118 to 120 °C.

Take `COc1cc(COc2nn(C)cc2C(C)O)ccc1OCc1nc(-c2ccccc2)oc1C` (configuration not stated): the melting point fell in the range of 94 to 95 °C.

In turn, `CS(=O)(=O)NCCCCn1c(CCO)nc2c(N)nc3cccnc3c21` returned a melting point of 194 to 195 °C.

In the case of `CCOC1=NS(=O)(=O)C(C#N)=C1N`, the melting point is 228 to 229 °C.

On to `CC(=O)SCC(Cc1ccccc1)NC(=O)OC(C)(C)C` (configuration not stated), for which the melting point fell in the range of 92 to 94 °C.

Turning to `CCCCCn1cc2cc(CCCC)oc2nc1=O`, the melting point fell in the range of 139 to 141 °C.

Consider `CCCCN(CC)c1nc(C)nc2c1C(C)(C)C(O)N2c1c(C)cc(C)cc1C` (configuration not stated), for which the melting point lay in the range of 142 to 145 °C.

Consider `CSc1cc(-c2ccc(Cl)cc2)nc(-c2cccc(Cl)c2)c1`, for which the melting point turned out to be 98.4 °C.

On to `COCC1(CCCCCCCCCCCCC2(C(=O)NS(C)(=O)=O)CC2)CC1`, for which the melting point was in the range of 44.6 to 45.3 °C.

`Cc1cc(Nc2nc(-c3ccc(Cl)c(Cl)c3)nc3ccccc23)[nH]n1` had a melting point of 274 °C.

`O=Cc1cc([N+](=O)[O-])ccc1Br`: the melting point was 86 to 88 °C.

`OC[C@@H](OCc1ccccc1)[C@@H](O)[C@H](O)[C@@H](CO)OCc1ccccc1` returned a melting point of 116 to 117 °C.

As for `CN(C)CCN(C(=O)N(C)C)c1nc2ccccc2[nH]1`, the melting point was 193 to 195 °C.

As to `C=CC1CC2=C(CC=C(OC)C2)C2CCC3(C)C(=CCC3O)C12` (configuration not stated), the melting point is 129 to 136 °C.

As to `COC(=O)c1ccc(CCc2c[nH]c3nc(N)[nH]c(=O)c23)cc1`, the melting point is greater than 220 °C.

`CC(=O)Oc1c(C2CCN(CCCCNC(=O)c3ccc(NC(=O)c4ccc(Cl)cc4)cc3)CC2)ccc2ccccc12` returned a melting point of 240 °C.

`CCOC(=O)c1c(C)n(C(C)=O)c(=O)n1C(C)=O` gave a melting point of 56 to 58 °C.

`CCCc1c(C)nc2ccc(C(=O)OC)cn2c1=O` came in with a melting point of 98 to 99 °C.

Compound `Cc1nc(S(=O)(=O)CC(=O)OCc2cccs2)nc(C)c1Br` had a melting point of 87 to 88 °C.

`O=C(c1ccccc1)c1ccc(-c2ccc(CBr)cc2)cc1`: the melting point is 110 to 112 °C.

With `N#Cc1cccc(C(=O)N2CCN(c3ccc(NC(=O)c4ccccc4-c4ccc(C(F)(F)F)cc4)cc3)CC2)c1`, the melting point was 178 to 180 °C.

On to `CC(/C=C/c1ccsc1-c1ccc2c(c1)C(C)(C)CCC2(C)C)=C\C(=O)O`, for which the melting point lay in the range of 195 to 197 °C.

In the case of `CCCN1C(=O)c2ccccc2C1(O)c1ccc(F)cc1` (configuration not stated), the melting point is 172 to 175 °C.

`CN(C(CCn1c(=O)cc(C(F)(F)F)[nH]c1=O)C(=O)NO)S(=O)(=O)c1ccc(Oc2ccc(Cl)cc2)cc1` (configuration not stated) gave a melting point of 173 to 174 °C.

Regarding `CCOCc1cc(C(C)(C)C)cc(COCC)c1SSc1c(COCC)cc(C(C)(C)C)cc1COCC`, the melting point was in the range of 62 to 63 °C.

As to `O=[N+]([O-])c1cc(C(F)(F)F)ccc1NC1CCCCC1`, the melting point stood at 80.1 °C.

Consider `COc1cc(-c2sc3nc(N)[nH]c(=O)c3c2C)ccc1Cl`, for which the melting point was in the range of 312 to 322 °C.

`O=S(=O)(/C=C/c1ccc(Cl)cc1)Nc1ccccc1Cl`: the melting point lay within 107 to 109 °C.

Consider `N#Cc1cccc(CSc2nnc(-c3ccc4[nH]ncc4c3)o2)c1`, for which the melting point fell in the range of 172 to 173 °C.

As to `O=C(N[C@H]1CC[C@H](CCN2CCN(c3nccc4c3OCC4)CC2)CC1)C1(O)CC1`, the melting point was found to be 248 °C.

The compound `CC1=Cc2ccc(Cl)cc2C(c2ccc([N+](=O)[O-])c(C)c2)=NN1C(=O)Oc1ccccc1` registered a melting point of 188 to 190 °C.

`NS(=O)(=O)c1cc(C(=O)O)cc(S)c1Oc1ccccc1` returned a melting point of 225 °C.

Turning to `CCSC(=O)Cc1csc(N)n1`, the melting point was 76 to 77 °C.

`CCC1(c2cn(-c3c(Cl)cc(C(F)(F)F)cc3Cl)nc2C#N)CC1(Br)Br` (configuration not stated): the melting point was 107 to 108 °C.

For `C=CCOc1ccc(Nc2nccc(-c3cccnc3)n2)cc1`, the melting point lay in the range of 105 to 108 °C.

Take `COc1nc(C(F)(F)C(F)(F)F)cc(=O)n1-c1cc(O)c(Cl)cc1F`: the melting point is 143 to 145 °C.

For `CN(C)CCNC(=O)c1nc(N)sc1-c1ccccn1`, the melting point is 143 to 144 °C.

`O=Cc1coc2c(c1=O)CCc1ccccc1-2` came in with a melting point of 153 to 156 °C.

As to `Nc1cccc2nccnc12`, the melting point was in the range of 87 to 90 °C.

Take `CCOC(=O)COc1c(Cl)c(Cl)c2c(-c3ccccc3F)noc2c1Cl`: the melting point fell in the range of 140 to 143 °C.

Take `N#Cc1ncccc1COc1cccc(F)c1`: the melting point lay within 52 to 53 °C.

For `CS(=O)(=O)Nc1cccc(CNC(=O)c2nc3ccccc3c(=O)[nH]2)c1`, the melting point was in the range of 240 to 248 °C.

In turn, `COc1cc(OC)cc(N2CCN(C(=O)N(C)c3cc(C)c(C)cc3OC)CC2)c1` had a melting point of 86 to 88 °C.

The compound `O=[N+]([O-])c1cccc(-c2cc3ncnc(Nc4ccc5[nH]ccc5c4)c3s2)c1` had a melting point of 175 to 183 °C.

As for `N#CN1CCC(c2nn(-c3ccccc3F)c3ccccc23)CC1`, the melting point was 119 to 121 °C.

`N#Cc1nc(-c2ccc(OCCN3CCCCC3)cc2)cs1` registered a melting point of 85 to 86 °C.

`FC(F)(F)C(F)(F)C(F)(F)C(F)(F)C(F)(F)C(F)(F)C(F)(F)C(F)(F)C(F)(F)C(F)(F)C(F)(F)Br` came in with a melting point of 96 to 98 °C.

In turn, `O=c1c2ccccc2nc(CCl)n1-c1ccc(Cl)cc1` displayed a melting point of 234 to 235 °C.

For the compound `CC(C)(C)c1cc(CCc2ccccc2NC(=O)NC2CCN(Cc3ccccn3)CC2)cc(C(C)(C)C)c1O`, the melting point is 106 to 109 °C.

Compound `Cc1oc2c(C)c(C)c(NCc3ccc(F)cc3)c(C)c2c1-c1ccc(C(C)C)cc1` came in with a melting point of 95 to 97 °C.

Take `O=C(C[N+](=O)[O-])c1ccc(-c2ccc(-c3ccc4ccccc4n3)cc2)cc1`: the melting point was 160 to 162 °C.

For `C[C@](N)(CO)CCc1ccc2oc(-c3ccccc3)nc2c1`, the melting point is 128 °C.

Regarding `Nc1nc(-c2ccncc2)nc2c1c([N+](=O)[O-])nn2C1CCCC1`, the melting point was in the range of 239 to 241 °C.

Turning to `O=C1Nc2cc(F)ccc2Oc2ccccc21`, the melting point is 228 to 229 °C.

As for `Nc1nc(N2CCC2)c2nc[nH]c2n1`, the melting point worked out at 280 °C.

In turn, `CNS(=O)(=O)c1cn(C)c2cc(C)ccc2c1=O` showed a melting point of 237 to 240 °C.

`Cc1ccc(Nc2ccccc2C(=O)O)c([N+](=O)[O-])c1`: the melting point fell in the range of 209 to 213 °C.

The compound `CSc1nc2ccc(C)cc2c(=O)s1` yielded a melting point of 114 °C.

For the compound `O=C(O)c1cccc(-c2cccc3c2CN(Cc2cccc(C(F)(F)F)c2)C3=O)c1`, the melting point was 190 to 191 °C.

In turn, `Cc1cc(-n2cncn2)c2cc(Cl)cc(Cl)c2n1` had a melting point of 220 to 222 °C.

Compound `COC(=O)c1ccc(Cl)cc1O` came in with a melting point of 27 to 30 °C.

As to `Cc1cc(-c2ccc(S(C)(=O)=O)cc2)n(-c2ccc(F)cc2)c1C`, the melting point fell in the range of 159 to 162 °C.

In the case of `CCCNCC(O)COc1ccc2c(=O)cc(-c3ccccc3)oc2c1` (configuration not stated), the melting point is 145 to 147 °C.

Take `CCOc1ccc(NC(=O)CC(Cc2cccc3ccccc23)C(=O)O)cc1` (configuration not stated): the melting point fell in the range of 131 to 135 °C.

The compound `NS(=O)(=O)Oc1ccccc1F` returned a melting point of 63 to 64 °C.

The compound `O=C(O)c1ccc(-n2sc(-c3ccccc3)cc2=O)cc1` came in with a melting point of 238 to 240 °C.

Compound `Cc1nc(C(C)(C)C)c[nH]1` showed a melting point of 155 to 156 °C.

On to `CCOCc1nc2c(N)nc3cc(OCc4ccc(C(F)(F)F)o4)ccc3c2n1CC(C)(C)NS(C)(=O)=O`, for which the melting point was in the range of 186 to 188 °C.

Compound `COC(=O)c1ccc2[nH]cc(C3=CCN(C)CC3)c2c1` had a melting point of 202 to 204 °C.

`C=Cc1cc(C)cc(NC(C)=O)n1` showed a melting point of 140 °C.

On to `CCc1c(C(=O)c2cc(Cl)cc(Cl)c2)[nH]c(=O)[nH]c1=O`, for which the melting point fell in the range of 242 to 243 °C.

In the case of `COc1ccc(C2CCN(C(=O)/C=C/c3ccccc3)CC2)cc1OC1CCCC1`, the melting point was in the range of 93 to 95 °C.

For the compound `Cc1ccc(C#Cc2ccc(NC(=O)OC(C)(C)C)c(N)c2)cc1`, the melting point came to 175 °C.

As to `O=CNc1cc([N+](=O)[O-])cc([N+](=O)[O-])c1`, the melting point lay within 121 to 123 °C.

(Values after a melting point compilation (Tetko et al.; mined from patent text by program, amines drawn as free bases though some values may be those of a salt).)
